Laboratory results as given in publication PMC10779222, “Copper(II) Complexes with 1-(Isoquinolin-3-yl)heteroalkyl-2-ones: Synthesis, Structure and Evaluation of Anticancer, Antimicrobial and Antioxidant Potential” (International Journal of Molecular Sciences, 2023).

Key:
T98G cells [1] = assay: Cell cycle analysis (image cytometry, DAPI) in T98G; format: cell-based, human; conditions: 24 h, C2 at IC50 concentration
Protocol: (§1) Cell cycle analysis of T98G and HepG2 cells pretreated with copper(II) complex C2 (CX) (at IC50 concentration) was performed on NucleoCounter NC-3000 Image Cytometer (ChemoMetec, Lillerod, Denmark). The investigated cells were seeded on 6-well culture plates (Corning Inc., New York, NY, USA) at the density of 1 × 10^5 cells/mL and cultured in the respective medium at 37 °C in a humidified atmosphere of 5% CO2. When the cells reached approximately 80% confluence, they were treated with C2 (CX), at a concentration of IC50, for 24 h. Subsequently, the cells were detached with trypsine, suspended in 250 μL of lysis buffer (Solution 10) supplemented with DAPI (10 μg/mL) and incubated for 5 min at 37 °C. Following this, stabilization buffer (Solution 11) was added, and the obtained cell suspension was applied on NC-slide and analyzed using NucleoCounter NC-3000 Image Cytometer equipped with NucleoView NC-3000^TM software (ChemoMetec A/S, Lillerod, Denmark). Experiments were repeated three times, and the measurements in each experiment were run in duplicate.

LS-180 (colon cancer) = assay: MTT cytotoxicity assay on LS-180 cells; format: cell-based, human; conditions: 24 h incubation
Protocol: (§2) Cytotoxic activity of the investigated compounds was evaluated against T98G (glioblastoma), HepG2 (hepatoma), LS-180 (colon cancer) and A375 (melanoma) cell lines. Human normal skin fibroblasts, CCD-1059Sk (CRL-2072), were used as reference (non-cancerous) cells. All of the cell lines were obtained from American Type Culture Collection (ATCC; Manassas, VA, USA). A375, T98G and CCD-1059Sk cells were cultured in Dulbecco’s Modified Eagle’s Medium (DMEM) (Sigma Aldrich, St. Louis, MO, USA) supplemented with 10% FBS, penicillin (100 U/mL) and streptomycin (100 μg/mL). LS-180 and HepG2 cells were cultured in Eagle’s Minimum Essential Medium supplemented with 10% FBS, penicillin (100 U/mL) and streptomycin (100 μg/mL). All of the cells were maintained at 37 °C in a humidified atmosphere of 5% CO2. The compounds were dissolved in DMSO in order to obtain stock solutions. At the day of the experiment, the suspension of cells (1 × 10^5 cells/mL) was distributed onto 96-well plates at a volume of 100 μL/well. After attachment, the cells were treated with the increased concentrations of the tested compounds in medium containing 2% FBS and incubated for 24 h. Then, the medium was removed from wells, and cells were rinsed with PBS. Afterwards, 15 μL of MTT working solution (5 mg/mL in PBS) was added to each well, and the plates were incubated for 3 h. Subsequently, 100 μL of 10% SDS solution was added to each well in order to dissolve the precipitated formazan crystals. After overnight incubation at 37 °C, the absorbance of the obtained solution was measured at λ = 570 nm using a microplate reader (Epoch, BioTek Instruments, Inc., Winooski, VT, USA). At least two independent experiments were performed in triplicate. […] IC50 values of the investigated derivatives and positive control (etoposide) were calculated using the IC50 online calculator [101].

A375 (melanoma) = assay: MTT cytotoxicity assay on A375 cells; format: cell-based, human; conditions: 24 h incubation
Protocol: as §2

HepG2 cells = assay: Cell cycle analysis (image cytometry, DAPI) in HepG2; format: cell-based, human; conditions: C2 at IC50 concentration
Protocol: as §1

[2] = system: A375, HepG2, LS-180, T98G and CCD-1059Sk cell lines; assay: MTT cytotoxicity assay, summary statements over several cell lines; format: cell-based; conditions: range over HepG2 and T98G
Protocol: as §2

[3] = system: Candida albicans ATCC 102231; assay: Two-fold microdilution broth method, MIC; format: cell-based; conditions: 35 °C, 24 h
Text: (§3) Antibacterial and antifungal activities of the free ligands L2, L3 and L4 and the corresponding copper(II) complexes C2, C3 and C4 were screened using the two-fold microdilution broth method. Minimal inhibitory concentrations (MICs) of tested compounds for the panel of reference Gram-positive bacteria, including Staphylococcus aureus ATCC 25923, Staphylococcus aureus ATCC BAA-1707, Staphylococcus epidermidis ATCC 12228, Micrococcus luteus ATCC 10240 and Bacillus cereus ATCC 10876; Gram-negative bacteria, including Salmonella Typhimurium ATCC 14028, Escherichia coli ATCC 25922, Proteus mirabilis ATCC 12453, Klebsiella pneumoniae ATCC 13883 and Pseudomonas aeruginosa ATCC 9027; and yeasts, including Candida albicans ATCC 102231, Candida parapsilosis ATCC 22019 and Candida glabrata ATCC 90030 were determined. The procedure has been described in detail before. Briefly, the solutions of tested compounds dissolved in dimethylosulfoxide (DMSO) were suspended in Mueller–Hinton broth for bacteria or Mueller–Hinton broth with 2% glucose for fungi. Then, the series of two-fold dilutions were carried out in the sterile Nunc™ MicroWell™ 96-Well Microplates (ThermoFisher Scientific Inc.), obtaining concentrations from 1000 to 7.8 mg/L in the appropriate medium. Simultaneously, the inocula of 24 h cultures of microorganisms in sterile physiological saline (0.5 McFarland standard density) were prepared and added to each well, obtaining final density of 5 × 10^5 CFU/mL for bacteria and 5 × 10^4 CFU/mL for yeasts. Proper positive (inoculum without tested compound) and negative (compound without inoculum) controls were added in each microplate. After incubation (35 °C, 24 h), the growth of microorganisms was measured spectrophotometrically at 600 nm (BioTEK ELx808, Bio-Tek Instruments, Inc., Winooski, VT, USA). MICs were marked at the lowest concentration of the compound without the growth of bacteria or fungi.

[4] = system: Candida parapsilosis ATCC 22019; assay: Two-fold microdilution broth method, MIC; format: cell-based; conditions: 35 °C, 24 h
Text: as §3

[5] = system: Candida glabrata ATCC 90030; assay: Two-fold microdilution broth method, MIC; format: cell-based; conditions: 35 °C, 24 h
Text: as §3

T98G (glioblastoma) = assay: MTT cytotoxicity assay on T98G cells; format: cell-based
Protocol: as §2

[6] = system: CCD-1059Sk (human normal skin fibroblasts); assay: MTT cytotoxicity assay on non-cancerous fibroblasts; format: cell-based; conditions: 24 h incubation, non-cancerous cells
Protocol: as §2

T98G cells [7] = conditions: C2 at 0.25 µg/mL (non-cytotoxic), drugs at IC50 or 100 µg/mL, 24 h, MTT
Protocol: Next, T98G or HepG2 cells were incubated for 24 h with medium containing a mixture of the respective drugs mixed with the highest non-toxic concentration of C2 (CX). The viability of cells was evaluated using MTT assay, as described above. ANOVA analysis (with Tukey’s post hoc test) was performed in order to examine the possible interactions between compound C2 (CX) and ETO, CIS, 5-FU and TMZ.

O=C1NCCN1c1cc2ccccc2cn1.O=C1NCCN1c1cc2ccccc2cn1.[Cl][Cu][Cl] [C2, Dichloro{bis[1-(Isoquinolin-3-yl)imidazolidin-2-one]}copper(II)]
effect on cell cycle progression, T98G (T98G cells [1]): cell cycle arrest in the G2/M phase
IC50 ± SD, LS180 (LS-180 (colon cancer)): 5.88 ± 0.40 µg/mL
IC50 ± SD, A375 (A375 (melanoma)): 28.91 ± 1.79 µg/mL
effect on cell cycle progression, HepG2 (HepG2 cells; 24 h): cell cycle arrest in the sub-G1 phase
DNA content in the sub-G1 phase (HepG2 cells; HepG2, 24 h, control cells 10%, p < 0.0001): 29%
IC50, HepG2 and T98G [2]: 5.04 to 6.97 µg/mL
MIC, C. albicans ATCC 102231 [3]: 1000 µg/mL
MIC, C. parapsilosis ATCC 22019 [4]: 1000 µg/mL
MIC, C. glabrata ATCC 90030 [5]: >1000 µg/mL
highest concentration that did not affect the viability of T98G cells (T98G (glioblastoma); MTT assay): 0.25 µg/mL
IC50 ± SD, T98G (T98G (glioblastoma); MTT, 24 h incubation): 6.97 ± 0.52 µg/mL
selectivity index (SI), T98G (T98G (glioblastoma); T98G compared with CCD-1059-Sk): 3.14
IC50 ± SD, CCD-1059-Sk [6]: 21.86 ± 1.03 µg/mL
effect on cytotoxicity of anticancer drugs, T98G (T98G cells [7]): statistically significantly improved the cytotoxic effects of ETO, 5-FU and TMZ
